In patent US20220008401A1, “COMPOSITIONS AND METHODS FOR TREATING PULMONARY DISEASE WITH MATRIX METALLOPROTEINASE INHIBITORS” (DARSHA LLC, priority 2019, published 2022):

Legend:
[1] = system: caspase 3/7; experiment: Caspase 3/7 activity assay on lung homogenate of LPS-injured mice; assay type: in vivo; settings: LPS-CGS group, four inhaled doses q6h starting 24 hours after LPS, n≥4 (LPS-PBS 0.81±1.15)
Procedure: It was also examined if Compound 1 would reduce the levels of apoptosis associated with injury by LPS. Because the time line of apoptosis takes hours, an additional set of mice were injured with LPS (1.5 mg/kg of 1 mg/ml solution in sterile PBS) followed by initiation of treatment with Compound 1 twenty four hours later. The mice received four doses of Compound 1 (one dose every six hours over a total duration of 24 hours in accordance with the treatment schedule described below with reference to FIG. 8B). The mice were sacrificed and their lungs were harvested and assessed for caspase 3 activity by western blot for cleaved caspase 3 and a caspase 3/7 activity assay obtained from ThermoFisher.
FIG. 5B is the relative densitometric quantification of western blots for cleaved caspase 3: whole caspase ratio. […] FIG. 5C depicts the results of the caspase 3/7 activity assay performed on mouse lung homogenate. […] The increase in caspase 3/7 activity was attenuated by inhaled treatment with Compound 1. FIG. 5D depicts 20× images (570A, 570B, and 570C) of representative sections of lung tissue fluorescently stained for cleaved caspase-3 (red) and cell nuclei (blue) in a control lung tissue (570A), a lung tissue of a mouse treated with LPS only (570B), and lung tissue of a mouse treated with LPS and Compound 1 (570C) (n=3).

[2] = system: neutrophils; experiment: BrdU pulse-chase labeling of newly synthesized neutrophils in BALF of LPS-exposed mice; assay type: in vivo; settings: LPS treated mice, n=3 (49.3±0.87% without treatment)
Procedure: To examine the hypothesis that reduced neutrophil counts in response to Compound 1 treatment resulted from decreased cell migration from the pulmonary circulation, pulse-chase labeling of newly synthesized neutrophils in LPS exposed animals was performed. LPS or saline was nasally instilled into mice which were then allowed to recover for 24 hours. Following this, an intraperitoneal injection (IP injections) of bromodeoxyuridine (BrdU) was administered and animals were allowed to rest for 2.5 hours. A 2.5-hour rest period was selected since it was previously determined that BrdU labeled neutrophils take about 3 hours to reach and infiltrate the lungs. At 2.5 hours animals received inhaled Compound 1 or PBS and were sacrificed at either 15- or 45 minutes post-treatment. Cytospin slides were generated from BALF and immunofluorescently stained for BrdU and MPO to identify neutrophils. Confocal images were taken of cytospins stained for BrdU and MPO (myeloperoxidase). The number of BrdU (+) and BrdU (−) neutrophils was quantified.

butanamide, N-hydroxy-2-[[(4-hydroxyphenyl)sulfonyl](3-pyridinylmethyl)amino]-3-methyl, hydrochloride, (2R) [Compound 1]
caspase 3/7 activity [1]: 0.05 ± 0.16 µM | percentage of BrdU (+) neutrophils ([2]; 15 minutes post inhaled treatment): 16.7±3.6% | percentage of BrdU (+) neutrophils ([2]; 45 minutes post inhaled treatment): 22.7±2.5%
